Literature values as cited in patent US20210000972A1, “NANOPARTICLES FOR SUSTAINED OPHTHALMIC DRUG DELIVERY AND METHODS OF USE” (2C TECH CORP., priority 2017, published 2021).
Like-named read-outs stand apart in the source and are kept apart here. Blank lines part the entries; values can stand above or below the molecule they belong to.

duration of constant concentration (sustained release form (embedded in a lactic co-glycolic copolymer)): one
Molecule: C[C@@H]1C[C@H]2[C@@H]3CCC4=CC(=O)C=C[C@]4(C)[C@@]3(F)[C@@H](O)C[C@]2(C)[C@@]1(O)C(=O)CO [dexamethasone]

half-life (intravitreal): 12 h
Molecule: O=C(O)P(=O)(O)O [foscarnet]

half-life (intravitreal suspension, 4 mg): 576 h | time the drug lasted (intravitreal suspension, the two doses administered (4 mg and 16 mg)): 4 to 6 months
Molecule: CC1(C)O[C@@H]2C[C@H]3[C@@H]4CCC5=CC(=O)C=C[C@]5(C)[C@@]4(F)[C@@H](O)C[C@]3(C)[C@]2(C(=O)CO)O1 [triamcinolone acetonide]

Molecule: Avastin: an antibody used for the treatment of macular edema
half-life (intravitreal antibody): 140 h | time detectable (intravitreal antibody): > 30 days | systemic delivery after intravitreal administration (untreated contralateral eye): found in the untreated contralateral eye
